Results as given in ChEMBL document CHEMBL4145536, “Design, synthesis and biological evaluation of novel bouchardatine analogs as potential inhibitors of adipogenesis/lipogenesis in 3T3-L1 adipocytes” (Eur J Med Chem, 2018).
pEC50, pIC50: −log10 of the molar value. Activity calls are given as the source filed them. No cut-off for these calls is given here.

What was measured:
3T3-L1 [1] = test: Lipid lowering activity in mouse 3T3L1 cells assessed as decrease in triglyceride level at 10 uM for 6 days by oil red o-staining based assay relative to control; type: functional; parameters: scale not given: the % may be the effect or the level left
HepG2 [2] = test: Lipid lowering activity in human HepG2 cells assessed as decrease in triglyceride level at 10 uM for 6 days in presence of oleic acid by oil red o-staining based assay relative to control; type: functional; parameters: scale not given: the % may be the effect or the level left
HepG2 [3] = test: Cytotoxicity against human HepG2 cells assessed as decrease in cell viability after 24 hrs by MTT assay; type: cell-based; conditions: HepG2, 24 h
3T3-L1 [4] = test: Cytotoxicity against mouse 3T3L1 cells assessed as decrease in cell viability after 24 hrs by MTT assay; type: cell-based; conditions: 3T3-L1, 24 h
3T3-L1 [5] = test: Lipid lowering activity in mouse 3T3L1 cells assessed as decrease in triglyceride level at 10 uM for 6 days by oil red o-staining based microscopic assay; type: functional, cell-based
Mus musculus = species: Mus musculus; test: Induction of AMPKalpha phosphorylation at Thr172 residue in mouse 3T3L1 cells at 2 mM after 4 hrs by Western blot analysis; type: cell-based
3T3-L1 [6] = test: Lipid lowering activity in mouse 3T3L1 cells assessed as decrease in triglyceride level treated 2 days post confluent for 9 days by oil red o-staining based assay; type: functional, cell-based
3T3-L1 [7] = test: Cytotoxicity against mouse 3T3L1 cells assessed as decrease in cell viability up to 10 uM measured up to 72 hrs by LDH release assay; type: cell-based; conditions: 3t3-l1, 72 h

Row | Compound | Activity (3T3-L1 [1]) [%] | Activity (HepG2 [2]) [%] | pIC50 (HepG2 [3]) | pIC50 (3T3-L1 [4]) | Activity (3T3-L1 [5]) | Activity (Mus musculus) | Activity (3T3-L1 [6]) | pEC50 (3T3-L1 [6]) | Activity (3T3-L1 [7])
1 | O=Cc1c(-c2nc(NCCN3CCCC3)c3ccccc3n2)[nH]c2ccccc12 | 94.9 | – | – | – | – | – | – | – | –
2 | Brc1c(-c2nc(NCCCN3CCCCC3)c3ccccc3n2)[nH]c2ccccc12 | 84.9 | 62.3 | 5.22 | 4.83 | – | – | – | – | –
3 | O=c1[nH]c(-c2cc3ccccc3[nH]2)nc2ccccc12 | 43.8 | 14.9 | 4.83 | 4.36 | – | – | – | – | –
4 | Fc1c(-c2nc(NCCN3CCCC3)c3ccccc3n2)[nH]c2ccccc12 | 64.2 | 23.6 | 5.14 | 4.61 | – | – | – | – | –
5 | O=c1[nH]c(-c2[nH]c3ccccc3c2Cl)nc2ccccc12 | 35.4 | 51.9 | < 4.30 | < 4.30 | Active | – | – | – | –
6 | OCCNc1nc(-c2[nH]c3ccccc3c2Cl)nc2ccccc12 | 38.3 | 53.1 | 4.68 | < 4.30 | – | – | – | – | –
7 | Clc1c(-c2nc(NCCN3CCOCC3)c3ccccc3n2)[nH]c2ccccc12 | 54.6 | 46.9 | 4.81 | 4.42 | – | – | – | – | –
8 | Clc1c(-c2nc(NCCN3CCCCC3)c3ccccc3n2)[nH]c2ccccc12 | 70.3 | 52 | 4.74 | 4.38 | Active | – | – | – | –
9 | CN(C)CCCNc1nc(-c2[nH]c3ccccc3c2C=O)nc2ccccc12 | 82.1 | 52.1 | 4.56 | 4.46 | Active | – | – | – | –
10 | CN(C)CCCNc1nc(-c2[nH]c3ccccc3c2F)nc2ccccc12 | 45 | 32.7 | 5.22 | 4.65 | – | – | – | – | –
11 | c1ccc2[nH]c(-c3nc(NCCCN4CCCC4)c4ccccc4n3)cc2c1 | 42.7 | 14.2 | < 4.30 | < 4.30 | – | – | – | – | –
12 | CN1CCN(CCCNc2nc(-c3[nH]c4ccccc4c3F)nc3ccccc23)CC1 | 42.5 | 22.5 | 5.28 | 4.70 | – | – | – | – | –
13 | NC(=O)c1ncn([C@@H]2O[C@H](CO)[C@@H](O)[C@H]2O)c1N | – | – | – | – | – | Active | – | – | –
14 | Clc1nc(-c2[nH]c3ccccc3c2Br)nc2ccccc12 | 58.9 | 0.9 | < 4.30 | < 4.30 | Active | – | – | – | –
15 | CCN(CC)CCNc1nc(-c2[nH]c3ccccc3c2Br)nc2ccccc12 | 86.5 | 50 | 5.21 | 4.81 | – | – | – | – | –
16 | CN(C)CCNc1nc(-c2[nH]c3ccccc3c2Br)nc2ccccc12 | 56.4 | 46.1 | 5.39 | 4.94 | Active | – | – | – | –
17 | CC(C)CCNc1nc(-c2[nH]c3ccccc3c2F)nc2ccccc12 | 37.3 | 38.7 | 4.54 | < 4.30 | Active | – | – | – | –
18 | CCN(CC)CCNc1nc(-c2[nH]c3ccccc3c2Cl)nc2ccccc12 | 87.5 | 15.6 | 5.34 | 4.72 | – | – | – | – | –
19 | Clc1c(-c2nc(NCCCN3CCCC3)c3ccccc3n2)[nH]c2ccccc12 | 53.8 | 51.4 | 5.33 | 4.70 | – | – | – | – | –

Row | Compound | Activity (3T3-L1 [1]) [%] | Activity (HepG2 [2]) [%] | pIC50 (HepG2 [3]) | pIC50 (3T3-L1 [4]) | Activity (3T3-L1 [5]) | Activity (Mus musculus) | Activity (3T3-L1 [6]) | pEC50 (3T3-L1 [6]) | Activity (3T3-L1 [7])
20 | Brc1c(-c2nc(NCCN3CCCCC3)c3ccccc3n2)[nH]c2ccccc12 | 83.8 | 62.1 | 5.29 | 4.88 | – | – | – | – | –
21 | CC(C)CNc1nc(-c2[nH]c3ccccc3c2Cl)nc2ccccc12 | 45.7 | 42.8 | 4.64 | < 4.30 | Active | – | – | – | –
22 | CN(C)CCNc1nc(-c2cc3ccccc3[nH]2)nc2ccccc12 | 42.3 | 0.6 | 4.60 | 4.89 | – | – | – | – | –
23 | Brc1c(-c2nc(NCCCN3CCCC3)c3ccccc3n2)[nH]c2ccccc12 | 81.6 | 53.1 | 5.51 | 5.02 | – | – | – | – | –
24 | CN(C)CCNc1nc(-c2[nH]c3ccccc3c2Cl)nc2ccccc12 | 89.1 | 33 | 5.57 | 4.83 | – | – | – | – | –
25 | CN(C)CCCNc1nc(-c2[nH]c3ccccc3c2Cl)nc2ccccc12 | 49.5 | 35.8 | 5.39 | 4.74 | – | – | – | – | –
26 | Clc1c(-c2nc(NCCN3CCCC3)c3ccccc3n2)[nH]c2ccccc12 | 60.5 | 42.5 | 5.60 | 4.61 | – | – | – | – | –
27 | c1ccc2[nH]c(-c3nc(NCCN4CCCC4)c4ccccc4n3)cc2c1 | 66.8 | 13.1 | 4.39 | 4.69 | – | – | – | – | –
28 | O=c1[nH]c(-c2[nH]c3ccccc3c2Br)nc2ccccc12 | 34.6 | 40.4 | < 4.30 | < 4.30 | Active | – | – | – | –
29 | CN1CCN(CCCNc2nc(-c3[nH]c4ccccc4c3Cl)nc3ccccc23)CC1 | 83.4 | 41.2 | 5.57 | 4.84 | – | – | – | – | –
30 | CN(C)CCCNc1nc(-c2[nH]c3ccccc3c2Br)nc2ccccc12 | 59.2 | 28.3 | 5.37 | 4.94 | Active | – | – | – | –
31 | Fc1c(-c2nc(Cl)c3ccccc3n2)[nH]c2ccccc12 | 71.8 | 40.7 | < 4.30 | < 4.30 | Active | – | Dose-dependent effect | 6.04 | Non-Toxic
32 | O=c1[nH]c(C2=Nc3ccccc3C2(F)F)nc2ccccc12 | 39.4 | 24.1 | < 4.30 | < 4.30 | Active | – | – | – | –
33 | CN(C)CCCNc1nc(-c2cc3ccccc3[nH]2)nc2ccccc12 | 48.2 | 5.8 | 4.35 | 4.52 | – | – | – | – | –
34 | Clc1c(-c2nc(NCCCN3CCOCC3)c3ccccc3n2)[nH]c2ccccc12 | 56.6 | 36.6 | 4.99 | 4.52 | – | – | – | – | –
35 | OCCCNc1nc(-c2[nH]c3ccccc3c2F)nc2ccccc12 | 44.4 | 26.3 | 4.52 | < 4.30 | – | – | – | – | –
36 | Brc1c(-c2nc(NCCN3CCCC3)c3ccccc3n2)[nH]c2ccccc12 | 84.2 | 54.3 | 5.37 | 4.90 | – | – | – | – | –
37 | CN(C)CCNc1nc(-c2[nH]c3ccccc3c2F)nc2ccccc12 | 57.3 | 24.2 | 5.38 | 4.66 | – | – | – | – | –
38 | Clc1nc(-c2[nH]c3ccccc3c2Cl)nc2ccccc12 | 45.6 | 37.7 | < 4.30 | < 4.30 | Active | – | – | – | –
